Literature values, collected in patent publication US20140170075A1, “NON-INVASIVE IMAGING METHODS FOR PATIENT SELECTION FOR TREATMENT WITH NANOPARTICULATE THERAPEUTIC AGENTS” (Merrirnack Pharmaceuticals, Inc., priority 2012, published 2014).

System: cancer cell proliferation
Conditions: more active than irinotecan

## CCc1c2c(nc3ccc(O)cc13)-c1cc3c(c(=O)n1C2)COC(=O)[C@]3(O)CC [SN-38]
  activity as an inhibitor of cancer cell proliferation relative to irinotecan: 100-1000 ×
